Measured values reported in paper PMC7736581, “Activation of the IRE1 RNase through remodeling of the kinase front pocket by ATP-competitive ligands” (Nature Communications, 2020).

Tests used:
Assay in all cases: biochemical
Design in all cases: Invitrogen kinase panel: Z'Lyte activity (ATP at Km) or LanthaScreen competitive ATP-site binding, percent inhibition
TrkA = target: T1, TrkA (Homo sapiens, UniProt P04629)
T1 construct: gene NTRK1

Yes = target: T2, Yes (Homo sapiens, UniProt P07947)
T2 construct: gene YES1

Aurora_B = target: T3, Aurora_B (Homo sapiens, UniProt Q96GD4)
T3 construct: gene AURKB

IRAK4 = target: T4, IRAK4 (Homo sapiens, UniProt Q9NWZ3)
T4 sequence (Q9NWZ3 1-460): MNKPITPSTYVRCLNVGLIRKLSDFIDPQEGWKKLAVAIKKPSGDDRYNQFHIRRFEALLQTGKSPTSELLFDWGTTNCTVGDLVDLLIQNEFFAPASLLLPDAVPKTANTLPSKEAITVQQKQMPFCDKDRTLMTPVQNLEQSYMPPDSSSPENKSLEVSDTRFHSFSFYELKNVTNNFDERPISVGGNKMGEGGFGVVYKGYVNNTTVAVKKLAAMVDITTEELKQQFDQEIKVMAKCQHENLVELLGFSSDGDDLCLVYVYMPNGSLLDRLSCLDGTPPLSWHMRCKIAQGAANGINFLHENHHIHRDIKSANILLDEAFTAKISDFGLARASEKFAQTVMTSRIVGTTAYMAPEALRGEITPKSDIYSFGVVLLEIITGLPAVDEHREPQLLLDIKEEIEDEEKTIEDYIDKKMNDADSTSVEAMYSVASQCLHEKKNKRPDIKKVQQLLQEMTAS

BTK = BTK (Homo sapiens, UniProt Q06187)
NEK1 = target: T5, NEK1 (Homo sapiens, UniProt Q96PY6)
T5 sequence (Q96PY6 1-1258): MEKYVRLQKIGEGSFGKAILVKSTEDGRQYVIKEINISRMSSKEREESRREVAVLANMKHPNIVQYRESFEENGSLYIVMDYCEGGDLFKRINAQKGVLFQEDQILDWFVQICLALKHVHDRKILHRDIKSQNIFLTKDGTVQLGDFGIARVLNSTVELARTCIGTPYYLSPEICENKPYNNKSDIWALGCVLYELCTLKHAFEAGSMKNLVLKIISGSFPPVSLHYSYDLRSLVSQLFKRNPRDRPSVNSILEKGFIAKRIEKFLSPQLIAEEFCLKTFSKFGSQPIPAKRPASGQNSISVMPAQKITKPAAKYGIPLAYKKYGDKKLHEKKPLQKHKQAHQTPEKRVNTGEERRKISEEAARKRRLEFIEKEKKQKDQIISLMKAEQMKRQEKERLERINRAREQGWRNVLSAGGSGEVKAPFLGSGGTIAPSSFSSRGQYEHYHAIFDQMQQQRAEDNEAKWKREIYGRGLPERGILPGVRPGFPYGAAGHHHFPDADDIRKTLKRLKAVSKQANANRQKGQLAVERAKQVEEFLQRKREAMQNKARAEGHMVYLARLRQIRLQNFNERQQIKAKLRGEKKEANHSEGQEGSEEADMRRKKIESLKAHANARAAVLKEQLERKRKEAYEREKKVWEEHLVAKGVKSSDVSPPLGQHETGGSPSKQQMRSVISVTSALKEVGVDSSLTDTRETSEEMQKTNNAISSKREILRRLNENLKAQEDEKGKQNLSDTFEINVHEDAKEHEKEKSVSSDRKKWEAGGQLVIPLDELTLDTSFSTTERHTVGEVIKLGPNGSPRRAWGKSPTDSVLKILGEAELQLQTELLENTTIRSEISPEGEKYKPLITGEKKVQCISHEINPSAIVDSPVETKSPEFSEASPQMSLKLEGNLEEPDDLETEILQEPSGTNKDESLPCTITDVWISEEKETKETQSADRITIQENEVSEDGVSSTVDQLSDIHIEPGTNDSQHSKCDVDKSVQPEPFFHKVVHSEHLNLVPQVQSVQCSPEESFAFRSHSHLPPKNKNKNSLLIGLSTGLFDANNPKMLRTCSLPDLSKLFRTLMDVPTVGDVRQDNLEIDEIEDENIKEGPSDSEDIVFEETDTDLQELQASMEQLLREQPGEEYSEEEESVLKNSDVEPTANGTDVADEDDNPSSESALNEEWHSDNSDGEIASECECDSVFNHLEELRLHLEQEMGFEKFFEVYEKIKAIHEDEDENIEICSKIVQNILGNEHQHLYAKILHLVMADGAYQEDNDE

T2 sequence (P07947 whole entry): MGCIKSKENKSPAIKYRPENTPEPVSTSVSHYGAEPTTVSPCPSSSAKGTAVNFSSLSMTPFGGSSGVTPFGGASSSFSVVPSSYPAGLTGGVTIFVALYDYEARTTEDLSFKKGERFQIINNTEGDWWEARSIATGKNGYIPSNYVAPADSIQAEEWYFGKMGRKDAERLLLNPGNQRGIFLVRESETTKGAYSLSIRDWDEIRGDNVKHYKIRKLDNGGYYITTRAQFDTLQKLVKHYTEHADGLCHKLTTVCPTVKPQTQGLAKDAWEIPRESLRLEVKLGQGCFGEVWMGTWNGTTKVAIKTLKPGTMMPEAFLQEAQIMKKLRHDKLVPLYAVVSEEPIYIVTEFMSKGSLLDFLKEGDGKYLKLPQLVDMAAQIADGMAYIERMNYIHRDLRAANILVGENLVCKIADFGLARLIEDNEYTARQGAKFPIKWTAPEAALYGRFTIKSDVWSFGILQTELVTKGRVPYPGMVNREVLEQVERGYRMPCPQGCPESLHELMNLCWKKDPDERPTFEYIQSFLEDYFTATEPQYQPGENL
T3 sequence (Q96GD4 whole entry): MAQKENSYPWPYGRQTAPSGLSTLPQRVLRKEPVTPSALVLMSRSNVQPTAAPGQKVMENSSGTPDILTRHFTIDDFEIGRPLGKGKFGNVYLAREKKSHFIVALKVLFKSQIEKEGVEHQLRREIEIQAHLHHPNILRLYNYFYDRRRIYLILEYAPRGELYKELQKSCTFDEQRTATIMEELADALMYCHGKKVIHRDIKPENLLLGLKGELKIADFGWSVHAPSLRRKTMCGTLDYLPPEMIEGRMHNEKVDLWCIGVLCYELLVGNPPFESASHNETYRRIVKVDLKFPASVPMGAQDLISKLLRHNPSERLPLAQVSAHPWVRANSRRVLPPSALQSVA
BTK, sequence (Q06187 whole entry): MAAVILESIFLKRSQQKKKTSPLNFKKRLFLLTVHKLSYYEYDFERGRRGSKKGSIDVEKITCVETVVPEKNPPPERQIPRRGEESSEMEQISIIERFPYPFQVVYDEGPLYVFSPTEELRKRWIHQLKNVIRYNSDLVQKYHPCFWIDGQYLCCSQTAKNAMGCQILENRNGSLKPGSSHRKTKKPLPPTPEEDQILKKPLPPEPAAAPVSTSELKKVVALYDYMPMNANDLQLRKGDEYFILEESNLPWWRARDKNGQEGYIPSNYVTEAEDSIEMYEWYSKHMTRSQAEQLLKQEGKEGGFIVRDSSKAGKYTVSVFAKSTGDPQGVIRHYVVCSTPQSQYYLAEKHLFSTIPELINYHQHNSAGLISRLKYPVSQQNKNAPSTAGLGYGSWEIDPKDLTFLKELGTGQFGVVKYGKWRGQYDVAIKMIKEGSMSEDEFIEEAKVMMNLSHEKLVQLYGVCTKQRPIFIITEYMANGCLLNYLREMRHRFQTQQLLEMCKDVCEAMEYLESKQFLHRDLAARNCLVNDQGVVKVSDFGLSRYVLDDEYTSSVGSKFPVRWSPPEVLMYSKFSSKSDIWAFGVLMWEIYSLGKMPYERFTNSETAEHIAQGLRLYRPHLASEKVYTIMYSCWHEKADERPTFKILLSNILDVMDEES
T1 sequence (P04629 whole entry): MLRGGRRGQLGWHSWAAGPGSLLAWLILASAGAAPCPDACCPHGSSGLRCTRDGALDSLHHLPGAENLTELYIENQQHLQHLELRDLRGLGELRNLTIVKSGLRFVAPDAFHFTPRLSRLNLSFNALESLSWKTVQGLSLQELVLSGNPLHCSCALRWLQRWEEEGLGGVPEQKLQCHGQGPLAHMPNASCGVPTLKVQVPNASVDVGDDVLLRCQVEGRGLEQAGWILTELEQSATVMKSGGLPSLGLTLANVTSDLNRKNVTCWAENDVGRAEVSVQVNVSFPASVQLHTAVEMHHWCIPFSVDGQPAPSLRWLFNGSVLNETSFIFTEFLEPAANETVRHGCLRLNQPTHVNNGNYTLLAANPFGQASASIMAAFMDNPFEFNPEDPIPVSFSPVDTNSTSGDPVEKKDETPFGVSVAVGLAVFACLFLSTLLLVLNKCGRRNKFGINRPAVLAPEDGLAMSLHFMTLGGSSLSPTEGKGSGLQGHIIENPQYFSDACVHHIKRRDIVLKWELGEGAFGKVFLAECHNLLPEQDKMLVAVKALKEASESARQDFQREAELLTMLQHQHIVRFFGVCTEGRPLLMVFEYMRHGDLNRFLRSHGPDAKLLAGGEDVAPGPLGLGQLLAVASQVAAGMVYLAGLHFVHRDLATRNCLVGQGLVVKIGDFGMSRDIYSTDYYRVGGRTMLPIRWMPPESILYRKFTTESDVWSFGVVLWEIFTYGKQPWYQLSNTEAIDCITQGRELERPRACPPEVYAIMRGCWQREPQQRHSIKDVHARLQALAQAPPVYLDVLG

Row | inhibition at 1 µM (TrkA) | inhibition at 1 µM (Yes) | inhibition at 1 µM (Aurora_B) | inhibition at 1 µM (IRAK4) | inhibition at 1 µM (BTK) | inhibition at 1 µM (NEK1) | SMILES
1 | 10.5% | 8% | 2% | -1% | 5.5% | 3% | CC#CC(=O)Nc1cccc2c(Oc3ncccc3-c3ccnc(N[C@H]4CCCNC4)n3)c(C)ccc12 [G-7658]
2 | 91.2% | 52.4% | 82.2% | 96.3% | 35.9% | 90.2% | O=c1cc(-c2n[nH]c3ncc(-c4c(F)cccc4F)cc23)nc(N2CCC(O)CC2)[nH]1 [G-9807]

Row | SMILES | inhibition at 1 µM (TrkA) | inhibition at 1 µM (Yes) | inhibition at 1 µM (Aurora_B) | inhibition at 1 µM (IRAK4) | inhibition at 1 µM (BTK) | inhibition at 1 µM (NEK1)
3 | CCOC(=O)Nc1cccc2c(Oc3ncccc3-c3ccnc(N[C@H]4CCCNC4)n3)c(C)ccc12 [G-1749] | -4% | 7.5% | 2.5% | 8% | 1.5% | 0.5%
